Patent US20120220581A1, “IMIDAZO[1,2-b]PYRIDAZINE DERIVATIVES AND THEIR USE AS PDE10 INHIBITORS” (Janssen-Cilag, S.A., priority 2009, published 2012)
Like-named read-outs stand apart in the source and are kept apart here.

How the values were obtained:
[1] = target: T1, Rat recombinant PDE10A (rPDE10A2) (Rattus norvegicus, UniProt Q9QYJ6); experiment: In vitro assay PDE10A (SPA, 3H-cAMP); type: biochemical
T1 construct: inferred from the Ni metal chelate purification; made in house; host or cells: Sf9 insect cells (baculovirus)
T1 sequence (Q9QYJ6 1-794): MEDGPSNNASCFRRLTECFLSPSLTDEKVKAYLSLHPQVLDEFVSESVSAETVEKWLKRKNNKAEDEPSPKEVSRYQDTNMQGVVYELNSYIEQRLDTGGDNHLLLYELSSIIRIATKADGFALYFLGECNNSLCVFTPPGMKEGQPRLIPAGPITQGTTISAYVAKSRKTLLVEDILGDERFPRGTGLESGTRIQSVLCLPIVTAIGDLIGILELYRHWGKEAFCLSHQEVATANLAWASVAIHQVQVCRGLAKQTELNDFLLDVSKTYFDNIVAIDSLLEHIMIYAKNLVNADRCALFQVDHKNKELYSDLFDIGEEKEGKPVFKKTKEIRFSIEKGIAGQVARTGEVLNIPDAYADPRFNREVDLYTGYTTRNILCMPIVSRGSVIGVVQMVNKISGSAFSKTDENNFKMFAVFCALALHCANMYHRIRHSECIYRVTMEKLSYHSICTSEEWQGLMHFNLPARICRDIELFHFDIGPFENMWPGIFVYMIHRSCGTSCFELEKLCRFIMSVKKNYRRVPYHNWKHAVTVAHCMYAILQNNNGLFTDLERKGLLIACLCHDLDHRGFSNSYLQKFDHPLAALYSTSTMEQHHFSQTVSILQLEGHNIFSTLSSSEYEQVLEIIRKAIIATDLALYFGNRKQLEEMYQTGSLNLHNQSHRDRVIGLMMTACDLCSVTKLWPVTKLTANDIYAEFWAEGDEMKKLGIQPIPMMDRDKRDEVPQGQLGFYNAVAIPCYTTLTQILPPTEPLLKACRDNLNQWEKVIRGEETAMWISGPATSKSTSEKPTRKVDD
In short: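 Scintillation proximity read-out (cpm) of 3H-cAMP hydrolysis after 60 min at room temperature, with enzyme-free blanks and 1% DMSO controls. Enzyme was Sf9-expressed, Ni-sepharose-purified rat rPDE10A2; substrate 60 nM cAMP with tracer, buffer Tris pH 7.8 containing MgCl2 and EGTA.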

PDE4D3 = PDE4D3 (Homo sapiens, UniProt Q08499); experiment: In vitro PDE selectivity assay (SPA), PDE4D3; type: biochemical; details: hPDE4D3; read-out: PDE 4D3 (expressed as pIC50) (converted)
PDE4D3, sequence (Q08499 1-673 isoform Q08499-2): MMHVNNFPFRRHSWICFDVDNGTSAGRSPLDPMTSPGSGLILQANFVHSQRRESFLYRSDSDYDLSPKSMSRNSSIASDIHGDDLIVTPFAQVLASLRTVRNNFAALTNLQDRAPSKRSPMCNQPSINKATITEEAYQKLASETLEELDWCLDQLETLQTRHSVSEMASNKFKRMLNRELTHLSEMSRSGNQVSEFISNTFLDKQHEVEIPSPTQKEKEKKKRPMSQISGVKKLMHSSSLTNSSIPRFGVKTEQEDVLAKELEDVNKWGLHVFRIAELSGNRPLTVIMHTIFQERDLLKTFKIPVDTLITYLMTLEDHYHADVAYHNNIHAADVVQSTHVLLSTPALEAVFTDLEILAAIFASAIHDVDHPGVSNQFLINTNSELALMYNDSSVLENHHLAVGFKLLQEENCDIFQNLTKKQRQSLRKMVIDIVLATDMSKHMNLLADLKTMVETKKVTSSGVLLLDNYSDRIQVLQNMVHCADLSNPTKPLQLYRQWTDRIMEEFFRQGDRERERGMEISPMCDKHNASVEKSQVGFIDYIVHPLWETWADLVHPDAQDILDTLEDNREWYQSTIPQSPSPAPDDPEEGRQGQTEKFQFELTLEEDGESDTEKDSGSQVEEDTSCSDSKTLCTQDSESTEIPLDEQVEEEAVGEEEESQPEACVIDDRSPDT
Experimental: (§1) Rat recombinant PDE10A (rPDE10A2) was expressed in Sf9 cells using a recombinant rPDE10A baculovirus construct. Cells were harvested after 48 h of infection and the rPDE10A protein was purified by metal chelate chromatography on Ni-sepharose 6FF. Tested compounds were dissolved and diluted in 100% DMSO to a concentration 100 fold of the final concentration in the assay. Compound dilutions (0.4 μl) were added in 384 well plates to 20 μl of incubation buffer (50 mM Tris pH 7.8, 8.3 mM MgCl2, 1.7 mM EGTA). 10 μl of rPDE10A enzyme in incubation buffer was added and the reaction was started by addition of 10 μl substrate to a final concentration of 60 nM cAMP and 0.008 μCi ^3H-cAMP. The reaction was incubated for 60 minutes at room temperature. After incubation, the reaction was stopped with 20 μl of stop solution consisting of 17.8 mg/ml PDE SPA (scintillation proximity assay) beads. After sedimentation of the beads during 30 minutes the radioactivity was measured in a Perkin Elmer Topcount scintillation counter and results were expressed as cpm. For blanc values the enzyme was omitted from the reaction and replaced by incubation buffer. Control values were obtained by addition of a final concentration of 1% DMSO instead of compound. The same assay principle is applied for the measurement of the affinity of the compound for other members of the PDE family with appropriate modifications in incubation buffer, substrate concentration, incubation time and stop solution. An overview of the different protocols is presented in table A. A best fit curve is fitted by a minimum sum of squares method to the plot of % of control value substracted with blanc value versus compound concentration and the half maximal inhibitory concentration (IC50) value is derived from this curve.
(§2) The compounds of the invention are generally selective for PDE10 compared to other PDEs and there are a few that also have affinity for PDE1B1, 4D3 and 5A3.

PDE5A3 = PDE5A3 (Homo sapiens, UniProt O76074); experiment: In vitro PDE selectivity assay (SPA), PDE5A3; type: biochemical; details: hPDE5A3; read-out: PDE 5A3 (expressed as pIC50) (converted)
Experimental: as §1, §2

[2] = target: other members of the PDE family (Homo sapiens, UniProt O00408); experiment: In vitro PDE selectivity assay (SPA), other members of the PDE family (protocols in Table A); type: biochemical; details: hPDE2A; read-out: PDE 2A (expressed as pIC50) (converted)
other members of the PDE family (Homo sapiens, UniProt O00408), sequence (O00408 whole entry): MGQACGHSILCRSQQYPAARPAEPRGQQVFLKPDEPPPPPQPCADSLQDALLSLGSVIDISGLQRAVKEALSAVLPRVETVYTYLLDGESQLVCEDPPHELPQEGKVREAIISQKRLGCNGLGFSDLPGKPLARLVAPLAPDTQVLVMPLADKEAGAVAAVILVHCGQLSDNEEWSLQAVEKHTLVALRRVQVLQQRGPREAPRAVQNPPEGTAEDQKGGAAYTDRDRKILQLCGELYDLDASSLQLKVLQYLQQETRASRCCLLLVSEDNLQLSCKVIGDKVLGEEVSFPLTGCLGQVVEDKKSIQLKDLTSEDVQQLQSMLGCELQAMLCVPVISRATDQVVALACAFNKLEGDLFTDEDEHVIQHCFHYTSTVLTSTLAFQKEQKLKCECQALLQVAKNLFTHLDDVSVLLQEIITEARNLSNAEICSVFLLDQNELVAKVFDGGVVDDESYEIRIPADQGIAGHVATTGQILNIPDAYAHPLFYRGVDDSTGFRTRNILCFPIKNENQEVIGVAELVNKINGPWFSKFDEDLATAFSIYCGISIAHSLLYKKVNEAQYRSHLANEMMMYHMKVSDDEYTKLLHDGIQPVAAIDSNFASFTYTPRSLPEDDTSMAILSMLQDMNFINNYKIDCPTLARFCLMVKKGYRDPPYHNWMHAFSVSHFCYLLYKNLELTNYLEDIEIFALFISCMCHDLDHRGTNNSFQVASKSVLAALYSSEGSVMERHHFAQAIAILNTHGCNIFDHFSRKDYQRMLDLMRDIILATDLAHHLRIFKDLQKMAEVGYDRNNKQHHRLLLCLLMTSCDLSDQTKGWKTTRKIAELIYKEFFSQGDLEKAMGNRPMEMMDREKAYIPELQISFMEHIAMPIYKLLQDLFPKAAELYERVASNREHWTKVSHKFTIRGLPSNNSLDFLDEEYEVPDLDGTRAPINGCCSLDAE
Experimental: as §1, §2

[3] = target: other members of the PDE family (Homo sapiens, UniProt O76083); experiment: as above; type: biochemical; details: hPDE9A; read-out: PDE 9A (expressed as pIC50) (converted)
other members of the PDE family (Homo sapiens, UniProt O76083), sequence (O76083 whole entry): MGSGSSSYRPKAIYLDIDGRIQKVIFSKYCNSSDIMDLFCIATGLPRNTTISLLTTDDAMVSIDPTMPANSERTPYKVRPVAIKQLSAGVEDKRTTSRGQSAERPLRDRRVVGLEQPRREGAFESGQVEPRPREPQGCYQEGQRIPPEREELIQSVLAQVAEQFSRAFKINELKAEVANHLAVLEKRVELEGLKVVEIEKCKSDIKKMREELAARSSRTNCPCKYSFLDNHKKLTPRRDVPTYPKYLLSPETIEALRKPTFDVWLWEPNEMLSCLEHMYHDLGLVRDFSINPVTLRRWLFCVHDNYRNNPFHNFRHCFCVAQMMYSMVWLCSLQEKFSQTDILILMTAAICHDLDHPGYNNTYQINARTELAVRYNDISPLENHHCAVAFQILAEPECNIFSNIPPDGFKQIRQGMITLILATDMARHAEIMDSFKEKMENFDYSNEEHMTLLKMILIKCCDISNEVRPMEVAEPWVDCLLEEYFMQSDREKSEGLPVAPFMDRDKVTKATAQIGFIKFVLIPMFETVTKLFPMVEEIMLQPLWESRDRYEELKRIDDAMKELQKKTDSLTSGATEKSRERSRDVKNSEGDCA
Experimental: as §1, §2

[4] = target: other members of the PDE family (Homo sapiens, UniProt Q13946); experiment: as above; type: biochemical; details: hPDE7A1; read-out: PDE 7A (expressed as pIC50) (converted)
other members of the PDE family (Homo sapiens, UniProt Q13946), sequence (Q13946 whole entry): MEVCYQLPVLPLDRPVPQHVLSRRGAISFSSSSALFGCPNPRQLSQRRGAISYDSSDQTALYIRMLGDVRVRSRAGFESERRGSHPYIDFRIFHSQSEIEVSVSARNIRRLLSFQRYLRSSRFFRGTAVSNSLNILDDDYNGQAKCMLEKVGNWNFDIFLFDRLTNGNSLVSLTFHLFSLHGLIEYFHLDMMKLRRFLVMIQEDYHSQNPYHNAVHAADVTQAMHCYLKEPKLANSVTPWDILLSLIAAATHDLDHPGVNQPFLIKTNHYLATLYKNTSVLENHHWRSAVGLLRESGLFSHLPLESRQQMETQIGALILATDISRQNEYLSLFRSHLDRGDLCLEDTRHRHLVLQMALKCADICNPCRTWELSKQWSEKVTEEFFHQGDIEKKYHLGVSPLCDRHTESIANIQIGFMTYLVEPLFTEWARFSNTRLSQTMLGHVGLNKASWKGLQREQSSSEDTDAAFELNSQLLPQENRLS
Experimental: as §1, §2

[5] = target: other members of the PDE family (Homo sapiens, UniProt Q14432); experiment: as above; type: biochemical; details: hPDE3A; read-out: PDE 3A (expressed as pIC50) (converted)
other members of the PDE family (Homo sapiens, UniProt Q14432), sequence (Q14432 whole entry): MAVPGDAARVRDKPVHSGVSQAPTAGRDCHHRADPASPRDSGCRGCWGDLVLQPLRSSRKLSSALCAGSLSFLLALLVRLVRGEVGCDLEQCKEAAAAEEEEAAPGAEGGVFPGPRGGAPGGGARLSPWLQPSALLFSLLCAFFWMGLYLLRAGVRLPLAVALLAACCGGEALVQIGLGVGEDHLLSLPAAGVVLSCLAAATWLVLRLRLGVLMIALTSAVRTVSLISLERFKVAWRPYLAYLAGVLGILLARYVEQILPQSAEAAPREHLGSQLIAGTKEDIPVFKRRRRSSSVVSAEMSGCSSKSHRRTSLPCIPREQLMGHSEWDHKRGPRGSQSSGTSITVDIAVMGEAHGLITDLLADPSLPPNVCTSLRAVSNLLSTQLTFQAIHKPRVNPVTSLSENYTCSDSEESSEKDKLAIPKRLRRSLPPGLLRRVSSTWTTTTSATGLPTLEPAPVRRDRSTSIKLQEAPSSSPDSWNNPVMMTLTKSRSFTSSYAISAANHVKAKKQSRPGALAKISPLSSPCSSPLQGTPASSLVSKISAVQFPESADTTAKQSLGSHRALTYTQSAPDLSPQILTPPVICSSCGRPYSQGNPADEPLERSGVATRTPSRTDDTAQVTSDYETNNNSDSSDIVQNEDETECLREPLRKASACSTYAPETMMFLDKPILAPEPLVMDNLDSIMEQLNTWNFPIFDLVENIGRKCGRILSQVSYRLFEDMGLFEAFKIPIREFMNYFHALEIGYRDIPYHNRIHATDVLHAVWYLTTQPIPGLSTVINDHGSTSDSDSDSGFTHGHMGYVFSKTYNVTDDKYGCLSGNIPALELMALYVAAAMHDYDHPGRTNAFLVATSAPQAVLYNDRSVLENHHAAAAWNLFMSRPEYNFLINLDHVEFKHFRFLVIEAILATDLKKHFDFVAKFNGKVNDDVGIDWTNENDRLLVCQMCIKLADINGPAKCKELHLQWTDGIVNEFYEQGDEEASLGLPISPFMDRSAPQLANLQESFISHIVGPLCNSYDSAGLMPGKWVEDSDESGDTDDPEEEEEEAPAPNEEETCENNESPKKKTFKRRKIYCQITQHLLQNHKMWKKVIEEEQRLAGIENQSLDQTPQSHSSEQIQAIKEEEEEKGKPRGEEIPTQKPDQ
Experimental: as §1, §2

[6] = target: other members of the PDE family (Homo sapiens, UniProt Q9HCR9); experiment: as above; type: biochemical; details: hPDE11A4; read-out: PDE 11A4 (expressed as pIC50) (converted)
other members of the PDE family (Homo sapiens, UniProt Q9HCR9), sequence (Q9HCR9 whole entry): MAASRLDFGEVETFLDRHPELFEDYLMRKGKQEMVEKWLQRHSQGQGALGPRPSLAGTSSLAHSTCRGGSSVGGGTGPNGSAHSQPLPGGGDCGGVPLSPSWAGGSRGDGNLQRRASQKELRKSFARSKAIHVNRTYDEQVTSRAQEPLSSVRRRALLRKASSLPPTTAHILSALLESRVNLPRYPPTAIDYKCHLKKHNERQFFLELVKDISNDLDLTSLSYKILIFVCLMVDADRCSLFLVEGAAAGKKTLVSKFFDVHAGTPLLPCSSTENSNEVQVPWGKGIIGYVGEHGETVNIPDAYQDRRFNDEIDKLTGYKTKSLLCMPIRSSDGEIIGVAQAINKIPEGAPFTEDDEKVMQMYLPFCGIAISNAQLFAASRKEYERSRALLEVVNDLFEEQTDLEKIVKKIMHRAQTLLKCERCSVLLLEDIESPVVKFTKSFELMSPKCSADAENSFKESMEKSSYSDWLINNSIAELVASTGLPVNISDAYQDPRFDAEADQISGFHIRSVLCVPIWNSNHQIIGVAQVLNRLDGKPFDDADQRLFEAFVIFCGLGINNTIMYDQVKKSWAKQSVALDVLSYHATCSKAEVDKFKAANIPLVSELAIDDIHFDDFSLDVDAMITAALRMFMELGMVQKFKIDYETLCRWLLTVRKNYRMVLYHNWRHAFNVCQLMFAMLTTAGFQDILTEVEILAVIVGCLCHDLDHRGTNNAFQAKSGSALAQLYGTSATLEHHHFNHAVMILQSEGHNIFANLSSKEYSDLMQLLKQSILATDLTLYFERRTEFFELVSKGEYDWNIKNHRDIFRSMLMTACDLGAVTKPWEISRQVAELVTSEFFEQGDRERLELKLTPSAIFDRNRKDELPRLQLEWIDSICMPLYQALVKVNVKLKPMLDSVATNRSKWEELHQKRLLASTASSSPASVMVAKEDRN
Experimental: as §1, §2

[7] = test system: apomorphine-induced stereotypy in rats; experiment: Apomorphine-induced stereotypy in rats (APO); type: in vivo; details: Rattus norvegicus
Experimental: Apomorphine (1.0 mg/kg, i.v.)-induced stereotypy (compulsive sniffing, licking, chewing) was scored every 5 min over the first hour after injection of apomorphine, following a 1 hour interval pre-treatment with the test compound. The score system was: (3) pronounced, (2) moderate, (1) slight, and (0) absent.

PDE10 = target: T2, PDE10 (Rattus norvegicus, UniProt Q9QYJ6); experiment: PDE10 occupancy ([3H]-MP-10, striatum); type: in vivo; details: rat; for ED50: dose response; for receptor occupancy at 10 mg/kg: single dose 10 mg/kg
T2 construct: from tissue; host or cells: rat brain sections, striatum (in vivo dosing, ex vivo autoradiography)
T2 sequence (Q9QYJ6 1-794): T1 sequence (Q9QYJ6 1-794)
Experimental: Dose-response or single dose experiments were performed to measure PDE10 occupancy 1 hour after subcutaneous (s.c.) or oral (p.o.) administration. Male Wistar rats (200 g) were treated by s.c. or p.o. administration of various PDE10 inhibitors. The PDE10 radioligand [^3H]-MP-10 (10 μCi/animal) was injected intravenously (i.v.) 30 minutes before sacrifice. Brains were immediately removed from the skull and rapidly frozen. Twenty μm-thick brain sections were cut using a cryostat-microtome, thaw-mounted on microscope slides and loaded in a β-imager to quantify PDE10 occupancy in the striatum.

[8] = Table 4 in vitro selectivity, read-out: PDE 10A2 (expressed as pIC50) (converted)
[9] = pIC50 corresponds to the −log IC50 expressed in mol/L, read-out: PDE10A2 pIC50 (converted)
[10] = po, * compound not soluble, tested orally as a suspension, ≧: active in 30% of the animals at the indicated dose, ≦: active in 60%
[11] = dose at which 50% of the tested animals show the effect, ≧: active in 30% of the animals at the indicated dose, ≦: active in 60%
[12] = oral, read-out: SD po % occupancy at 10 mg/kg
[13] = n.d.: found not active at threshold dose 2.5 mg/kg or 10 mg/kg (a), not further tested
[14] = sc, subcutaneous, read-out: SD sc % occupancy at 10 mg/kg

Row | Structure (SMILES) | IC50 [1, 8] [nM] | IC50 [1, 9] [nM] | IC50 (PDE4D3) [µM] | IC50 (PDE5A3) [µM] | IC50 [2] [µM] | IC50 [3] [µM] | IC50 [4] [µM] | IC50 [5] [µM] | IC50 [6] [µM] | ED50 [7, 10] [mg/kg] | ED50 [7, 11] [mg/kg] | ED50 (PDE10; sc, subcutaneous administration, read-out: PDE10 in vivo occupancy ED50 sc) [mg/kg] | ED50 (PDE10; oral administration, read-out: PDE10 in vivo occupancy ED50 po) [mg/kg] | receptor occupancy at 10 mg/kg (PDE10; [12]) [%] | ED50 [7, 13] [mg/kg] | receptor occupancy at 10 mg/kg (PDE10; [14]) [%]
1 | Cc1nc2c(N3CCOCC3)ccnn2c1-c1ccc(C2CC2)nc1 [compound 33, 3-(6-cyclopropyl-3-pyridinyl)-2-methyl-8-(4-morpholinyl)-imidazo[1,2-b]pyridazine] | 77.6 | 77.6 | > 10 | > 10 | > 10 | > 10 | > 10 | > 10 | > 10 | ≥ 2.5 |  |  |  |  |  | 
2 | COC(C)(C)Cc1ccc(-c2c(C)nc3c(-c4ccncc4)ccnn23)cn1 [compound 7, 3-[6-(2-methoxy-2-methylpropyl)-3-pyridinyl-2-methyl-8-(4-pyridinyl)-imidazol-1,2-b]pyridazine] | 25.7 | 25.7 |  |  | > 10 |  |  |  |  |  | 0.3 | 1.6 |  |  |  | 
3 | COC(C)(C)Cc1ccc(-c2c(C)nc3c(-c4ccncc4)cc(C)nn23)cn1 [compound 48, 3-[6-(2-methoxy-2-methylpropyl)-3-pyridinyl]-2,6-dimethyl-8-(4-pyridinyl)-imidazo[1,2-b]pyridazine] | 115 | 115 |  |  | > 10 |  |  |  |  |  | ≥ 2.5 |  | 4.3 |  |  | 
4 | Cc1nc2c(N3CCOCC3)ccnn2c1-c1cnn(CC2CC2(F)F)c1 (stereo not drawn) [compound 118] | 50.1 | 50.1 | > 10 |  | > 10 | > 10 | > 10 | > 10 | > 10 | ≤ 10 |  |  |  | 4 |  | 
5 | COCCn1cc(-c2c(C(C)C)nc3c(-c4ccncc4)ccnn23)cn1 [compound 121, 3-[1-(2-methoxyethyl)-1H-pyrazol-4-yl]-2-(1-methylethyl)-8-(4-pyridinyl)-imidazo[1,2-b]pyridazine] |  | 234 |  |  |  |  |  |  |  |  |  |  |  |  | > 10 | 0
6 | Cc1nc2c(N3CCOCC3)cc(Cl)nn2c1-c1cnn(CC(F)(F)F)c1 [compound 146, 6-chloro-2-methyl-8-(4-morpholinyl)-3-[1-(2,2,2-trifluoroethyl)-1H-pyrazol-4-yl]-imidazo[1,2-b]pyridazine] | 52.5 | 52.5 | > 10 | 1.91 | > 10 | > 10 | 8.51 | > 10 | > 10 |  |  |  |  |  |  | 
7 | Cc1nc2c(N3CCOCC3)ccnn2c1-c1cnn(CC(F)(F)C2CC2)c1 [compound 128, 3-[1-(2-cyclopropyl-2,2-difluoroethyl)-1H-pyrazol-4-yl]-2-methyl-8-(4-morpholinyl)-imidazo[1,2-b]pyridazine] |  | 50.1 |  |  |  |  |  |  |  |  |  |  |  |  | > 10 | 40
8 | COC(C)(C)COc1ccc(-c2c(C)nc3c(N4CCOCC4)ccnn23)cn1 [compound 18, 3-[6-(2-methoxy-2-methylpropoxy)-3-pyridinyl]-2-methyl-8-(4-morpholinyl)-imidazo[,2-b]pyridazine] | 170 | 170 | > 10 |  | > 10 | > 10 | > 10 | > 10 | > 10 |  | 5 |  |  |  |  | 46
9 | Cc1nc2c(N3CCOCC3)ccnn2c1-c1ccc(OC(C)C)nc1 [compound 66, 2-methyl-3-[6-(1-methylethoxy)-3-pyridinyl]-8-(4-morpholinyl)-imidazo[1,2-b]pyridazine] |  | 178 |  |  |  |  |  |  |  |  |  |  |  |  | > 10 | 29
10 | Cc1nc2c(N3CCOCC3)ccnn2c1-c1cnn(C2CCOCC2)c1 [compound 117, 2-methyl-8-(4-morpholinyl)-3-[1-(tetrahydro-2H-pyran-4-yl)-1H-pyrazol-4-yl]-imidazo[1,2-b]pyridazine] | 97.7 | 97.7 | > 10 | > 10 | > 10 | > 10 | > 10 | > 10 |  |  |  |  |  |  |  | 
11 | Cc1nc2c(N3CCOCC3)ccnn2c1-c1ccnc(OC(C)C)c1 [compound 67, 2-methyl-3-[2-(1-methylethoxy)-4-pyridinyl]-8-(4-morpholinyl)-imidazo[1,2-b]pyridazine] |  | 87.1 |  |  |  |  |  |  |  |  |  |  |  |  | > 10 | 1
12 | Cc1nc2c(N3CCOCC3)ccnn2c1-c1ccc(OCC2CC2)nc1 [compound 65, 3-[6-(cyclopropylmethoxy)-3-pyridinyl]-2-methyl-8-(4-morpholinyl)-imidazo[1,2-b]pyridazine] |  | 162 |  |  |  |  |  |  |  |  |  |  |  |  | > 10 | 17
13 | COCCn1cc(-c2c(OC)nc3c(N4CCOCC4)ccnn23)cn1 [compound 140, 2-methoxy-3-[1-(2-methoxyethyl)-1H-pyrazol-4-yl]-8-(4-morpholinyl)-imidazo[1,2-b]pyridazine] |  | 174 |  |  |  |  |  |  |  |  |  |  |  | 0 | > 10 | 
